Assay: refractive index (Na D-line) (dimensionless); xn = mol fraction of the nth substance listed
Details: 99 kPa, Liquid, Standard Abbe refractometry

CCCC[n+]1ccccc1.F[B-](F)(F)F [1-butylpyridinium tetrafluoroborate] + O
refractive index
Details	293.15 K	303.15 K	313.15 K	323.15 K
x1 = 0.0165	1.34819	1.34644	1.34468	1.34263
x1 = 0.0379	1.36348	1.3612	1.35896	1.35635
x1 = 0.0863	1.38639	1.38392	1.38128	1.37835
x1 = 0.101	1.39141	1.38881	1.38613	1.38331
x1 = 0.134	1.40063	1.39805	1.39527	1.3926
x1 = 0.243	1.41888	1.41639	1.41376	1.41106
x1 = 0.289	1.42371	1.42115	1.41853	1.41585
x1 = 0.3456	1.42826	1.42571	1.42304	1.42041
x1 = 0.4217	1.43287	1.4303	1.42763	1.42496
x1 = 0.5485	1.43815	1.43558	1.43295	1.43025
x1 = 0.6029	1.43987	1.43726	1.43463	1.43194
x1 = 0.7232	1.44283	1.44021	1.43755	1.43489
x1 = 0.8005	1.44431	1.44168	1.43905	1.43637
x1 = 0.8575	1.44526	1.44261	1.43999	1.43731
x1 = 0.9315	1.44633	1.44368	1.44105	1.43838
x1 = 1	1.44719	1.44454	1.44191	1.43923

CCC[n+]1ccccc1.F[B-](F)(F)F [1-propylpyridinium tetrafluoroborate] + O
refractive index
Details	293.15 K	303.15 K	313.15 K	323.15 K
x1 = 0.0185	1.34795	1.34613	1.34407	1.34187
x1 = 0.0287	1.3549	1.35282	1.35055	1.34817
x1 = 0.0466	1.36529	1.36297	1.36049	1.35792
x1 = 0.0766	1.37888	1.37637	1.37374	1.37105
x1 = 0.0964	1.38592	1.38337	1.38071	1.37801
x1 = 0.2011	1.40941	1.40683	1.40419	1.40152
x1 = 0.2858	1.41984	1.41727	1.41465	1.41202
x1 = 0.3993	1.42862	1.42604	1.42343	1.42083
x1 = 0.4979	1.4337	1.4311	1.42848	1.42588
x1 = 0.5772	1.43677	1.43415	1.43152	1.42891
x1 = 0.6015	1.43757	1.43495	1.43233	1.42971
x1 = 0.6695	1.43957	1.43694	1.4343	1.43169
x1 = 0.7309	1.44111	1.43847	1.43583	1.43321
x1 = 0.7771	1.44212	1.43948	1.43685	1.43422
x1 = 0.8395	1.44335	1.4407	1.43806	1.43543
x1 = 0.9054	1.44449	1.44183	1.43918	1.43656
x1 = 0.9633	1.44537	1.44271	1.44006	1.43742
x1 = 1	1.44588	1.44322	1.44057	1.43793
